In PubChem BioAssay AID264 (DTP/NCI, 2004):
“And” between values parts separate entries of the source, which are not always exact repeats. Equal values may be shown once. Results filed as inconclusive are left out.

System: nude mice, LX-1 lung xenograft intrarenal, tumor weight T/C
Experiment: NCI In Vivo Anticancer Drug Screen. Data for tumor model Human Lung LX-1 Xenograft (intrarenal inoculation) in NU/NU Swiss (nude) mice
Conditions: endpoint: mean tumor weight change, higher = larger tumour
Summary of the method: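 Compound-treated mice carrying transplanted tumors were compared with vehicle-treated controls. Tumor size was the measured end point, and the value is the treated-group measurement divided by the control-group measurement (T/C).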

[1] = dose: 100.0 mg/kg/injection, schedule: Q01DX010 (sc), vehicle: saline
[2] = dose: 200.0 mg/kg/injection, schedule: Q01DX010 (sc), vehicle: saline
[3] = dose: 400.0 mg/kg/injection, schedule: Q01DX010 (sc), vehicle: saline
[4] = dose: 300.0 mg/kg/injection, schedule: Q04DX003 (sc), vehicle: saline with Tween-80
[5] = dose: 600.0 mg/kg/injection, schedule: Q04DX003 (sc), vehicle: saline with Tween-80
[6] = dose: 1200.0 mg/kg/injection, schedule: Q04DX003 (sc), vehicle: saline with Tween-80
[7] = dose: 2400.0 mg/kg/injection, schedule: Q04DX003 (sc), vehicle: saline with Tween-80
[8] = dose: 600.0 mg/kg/injection, schedule: Q04DX003 (sc), vehicle: Klucel (hydroxypropylcellulose) (HPC)
[9] = dose: 1200.0 mg/kg/injection, schedule: Q04DX003 (sc), vehicle: Klucel (hydroxypropylcellulose) (HPC)
[10] = dose: 50.0 mg/kg/injection, schedule: Q01DX010 (sc), vehicle: saline

With `COc1cc2c(cc1O)N=C[C@@H]1CCC(O)N1C2=O` (mixture of isomers) the T/C (dose: 4.0 mg/kg/injection, schedule: Q01DX010 (sc), vehicle: saline) was 213 % of control.

In the case of `C[CH2][Ge]1([CH2]C)[CH2]CC2(CCN(CCCN(C)C)C2)C[CH2]1`, the T/C (dose: 150.0 mg/kg/injection, schedule: Q04DX003 (sc), vehicle: saline) is reported as 89 % of control.

In the case of `OCC1OC(n2cnc3c(Cl)ncnc32)C(O)C1O` (stereo not drawn), the T/C [1] is reported as 74 % of control, the T/C [2] is reported as 96 % of control and 103 % of control and the T/C [3] is reported as 80 % of control and 99 % of control. For the same compound, the T/C (dose: 800.0 mg/kg/injection, schedule: Q01DX010 (sc), vehicle: saline) was 112 % of control.

For `O=C(O)C1CC1.[Ag]`, the T/C (dose: 37.5 mg/kg/injection, schedule: Q04DX003 (sc), vehicle: saline with Tween-80) was 63 % of control, the T/C (dose: 75.0 mg/kg/injection, schedule: Q04DX003 (sc), vehicle: saline with Tween-80) was 57 % of control and the T/C (dose: 150.0 mg/kg/injection, schedule: Q04DX003 (sc), vehicle: saline with Tween-80) was 62 % of control. For the same compound, the T/C [4] was 54 % of control.

For `COc1cc(Cl)ccc1C`, the T/C [4] was 116 % of control, the T/C [5] was 88 % of control and the T/C [6] was 100 % of control. For the same compound, the T/C [7] was 121 % of control.

For `CN(N=O)C(N)=O`, the T/C (dose: 12.5 mg/kg/injection, schedule: Q01DX010 (sc), vehicle: saline with Tween-80) was -64 % of control, the T/C (dose: 12.5 mg/kg/injection, schedule: Q04DX003 (sc), vehicle: saline) was 19 % of control and the T/C (dose: 25.0 mg/kg/injection, schedule: Q01DX010 (sc), vehicle: saline with Tween-80) was -69 % of control. For the same compound, the T/C (dose: 25.0 mg/kg/injection, schedule: Q04DX003 (sc), vehicle: saline) was 7 % of control, the T/C (dose: 50.0 mg/kg/injection, schedule: Q04DX003 (sc), vehicle: saline) was 12 % of control and the T/C (dose: 100.0 mg/kg/injection, schedule: Q04DX003 (sc), vehicle: saline) was 1 % of control.

In the case of `NC(=S)N/N=C/c1ccc(OC(=O)COc2ccccc2)cn1`, the T/C [4] is reported as 77 % of control, the T/C [5] is reported as 73 % of control and the T/C [6] is reported as 37 % of control.

`O=S(=O)(SC(S(=O)(=O)c1ccccc1)S(=O)(=O)c1ccccc1)c1ccccc1` was tested, and the T/C (dose: 100.0 mg/kg/injection, schedule: Q04DX003 (sc), vehicle: Klucel (hydroxypropylcellulose) (HPC)) was 115 % of control, the T/C (dose: 400.0 mg/kg/injection, schedule: Q04DX003 (sc), vehicle: Klucel (hydroxypropylcellulose) (HPC)) was 69 % of control and the T/C [8] was 63 % of control. For the same compound, the T/C (dose: 800.0 mg/kg/injection, schedule: Q04DX003 (sc), vehicle: Klucel (hydroxypropylcellulose) (HPC)) was 77 % of control and the T/C [9] was 65 % of control.

`CNC(=O)OCc1c(COC(=O)NC)c(-c2ccccc2)n(C)c1-c1ccccc1` was tested, and the T/C (dose: 50.0 mg/kg/injection, schedule: Q04DX003 (sc), vehicle: distilled water + Tween-80) was 88 % of control, the T/C (dose: 100.0 mg/kg/injection, schedule: Q04DX003 (sc), vehicle: distilled water + Tween-80) was 182 % of control and the T/C (dose: 200.0 mg/kg/injection, schedule: Q04DX003 (sc), vehicle: distilled water + Tween-80) was 50 % of control. For the same compound, the T/C (dose: 800.0 mg/kg/injection, schedule: Q04DX003 (sc), vehicle: distilled water + Tween-80) was 52 % of control and the T/C (dose: 1600.0 mg/kg/injection, schedule: Q04DX003 (sc), vehicle: distilled water + Tween-80) was 57 % of control.

In the case of `[N-]=[N+]=CC(=O)CCC(=O)C=[N+]=[N-]`, the T/C (dose: 1.5 mg/kg/injection, schedule: Q01DX010 (sc), vehicle: DMSO) is reported as 69 % of control and the T/C (dose: 3.0 mg/kg/injection, schedule: Q01DX010 (sc), vehicle: DMSO) is reported as 27 % of control.

In the case of `CCC(CC)COC(=O)c1ccccc1C(=O)OCC(CC)CC`, the T/C [4] is reported as 56 % of control, the T/C [5] is reported as 71 % of control and the T/C [6] is reported as 64 % of control. The T/C [7] was 73 % of control.

For `Cc1cc(NCCN(C(C)C)C(C)C)nc(/N=C(\N)Nc2ccc(Cl)c(C(F)(F)F)c2)n1`, the T/C (dose: 40.0 mg/kg/injection, schedule: Q04DX003 (sc), vehicle: Klucel (hydroxypropylcellulose) (HPC)) was 45 % of control, the T/C (dose: 80.0 mg/kg/injection, schedule: Q04DX003 (sc), vehicle: Klucel (hydroxypropylcellulose) (HPC)) was 60 % of control and the T/C (dose: 160.0 mg/kg/injection, schedule: Q04DX003 (sc), vehicle: Klucel (hydroxypropylcellulose) (HPC)) was 46 % of control. For the same compound, the T/C (dose: 320.0 mg/kg/injection, schedule: Q04DX003 (sc), vehicle: Klucel (hydroxypropylcellulose) (HPC)) was 62 % of control.

`Cc1c(N)nc(C(CC(N)=O)NCC(N)C(N)=O)nc1C(=O)NC(C(=O)NC(C)C(O)C(C)C(=O)NC(C(=O)NCCc1nc(-c2nc(C(=O)NCCCNCCCc3ccccn3)cs2)cs1)C(C)O)C(OC1OC(CO)C(O)C(O)C1OC1OC(CO)C(O)C(OC(N)=O)C1O)c1cnc[nH]1` (stereo not drawn) was tested, and the T/C (dose: 3.0 mg/kg/injection, schedule: Q01DX010 (sc), vehicle: water) was 16 % of control and the T/C (dose: 12.0 mg/kg/injection, schedule: Q01DX010 (sc), vehicle: water) was -82 % of control.

With `CN(C)N=Nc1ccc(S(N)(=O)=O)cc1` the T/C (dose: 100.0 mg/kg/injection, schedule: Q01DX010 (sc), vehicle: Klucel (hydroxypropylcellulose) (HPC)) was 1 % of control and 8 % of control, the T/C (dose: 200.0 mg/kg/injection, schedule: Q01DX010 (sc), vehicle: Klucel (hydroxypropylcellulose) (HPC)) was 3 % of control and 9 % of control and the T/C (dose: 800.0 mg/kg/injection, schedule: Q01DX010 (sc), vehicle: Klucel (hydroxypropylcellulose) (HPC)) was 16 % of control.

`Nc1nc(F)nc2c1ncn2C1OC(COP(=O)(O)O)C(O)C1O` (stereo not drawn) was tested, and the T/C [10] was 55 % of control, the T/C (dose: 50.0 mg/kg/injection, schedule: Q01DX010 (sc), vehicle: suspension in saline) was 53 % of control and 70 % of control and the T/C [1] was 20 % of control and 30 % of control. The T/C (dose: 100.0 mg/kg/injection, schedule: Q01DX010 (sc), vehicle: suspension in saline) was 56 % of control and 59 % of control, the T/C (dose: 200.0 mg/kg/injection, schedule: Q01DX010 (sc), vehicle: suspension in saline) was 6 % of control and 18 % of control and the T/C [3] was -72 % of control. For the same compound, the T/C (dose: 400.0 mg/kg/injection, schedule: Q01DX010 (sc), vehicle: suspension in saline) was -62 % of control.

With `CCOC(=O)C(CC(C)C)NC(=O)C(N)Cc1ccc(N(CCCl)CCCl)cc1` (stereo not drawn) the T/C (dose: 15.0 mg/kg/injection, schedule: Q04DX003 (sc), vehicle: water) was 72 % of control and the T/C (dose: 30.0 mg/kg/injection, schedule: Q04DX003 (sc), vehicle: water) was 55 % of control.

In the case of `N#CCCN(C(=S)Nc1cccc(C(F)(F)F)c1)C1CCCCC1`, the T/C (dose: 300.0 mg/kg/injection, schedule: Q04DX003 (sc), vehicle: Klucel (hydroxypropylcellulose) (HPC)) is reported as 60 % of control, the T/C [8] is reported as 55 % of control and the T/C [9] is reported as 77 % of control. For the same compound, the T/C (dose: 2400.0 mg/kg/injection, schedule: Q04DX003 (sc), vehicle: Klucel (hydroxypropylcellulose) (HPC)) was 80 % of control.

In the case of `COc1ccc(/C=C/C(=O)c2cc(C(=O)O)c(OC)cc2OC)cc1OC`, the T/C (dose: 300.0 mg/kg/injection, schedule: Q04DX003 (sc), vehicle: suspension in saline) is reported as 100 % of control, the T/C (dose: 600.0 mg/kg/injection, schedule: Q04DX003 (sc), vehicle: suspension in saline) is reported as 56 % of control and the T/C (dose: 1200.0 mg/kg/injection, schedule: Q04DX003 (sc), vehicle: suspension in saline) is reported as 73 % of control. The T/C (dose: 2400.0 mg/kg/injection, schedule: Q04DX003 (sc), vehicle: suspension in saline) was 66 % of control.

In the case of `O=C(O)CC(NC(=O)CP(=O)(O)O)C(=O)O` (stereo not drawn), the T/C (dose: 25.0 mg/kg/injection, schedule: Q01DX010 (sc), vehicle: saline) is reported as 51 % of control, the T/C [10] is reported as 90 % of control and the T/C [2] is reported as 57 % of control. For the same compound, the T/C [3] was 174 % of control.

`COc1cc(Cc2nccc3cc(OC)c(OC)cc23)c(C(C)=O)c(OC)c1` was tested, and the T/C (dose: 40.0 mg/kg/injection, schedule: Q01DX010 (sc), vehicle: saline) was 78 % of control, the T/C (dose: 80.0 mg/kg/injection, schedule: Q01DX010 (sc), vehicle: saline) was 57 % of control and the T/C (dose: 160.0 mg/kg/injection, schedule: Q01DX010 (sc), vehicle: saline) was 67 % of control.

`COc1cccc2c1C(=O)c1c(O)c3c(c(O)c1C2=O)C[C@@](O)(/C(CO)=N/NC(=O)c1ccc(Cl)c(Cl)c1)C[C@@H]3OC1CC(N)C(O)C(C)O1` (stereo partly drawn) was tested, and the T/C (dose: 8.0 mg/kg/injection, schedule: Q01DX010 (sc), vehicle: water) was 28 % of control, the T/C (dose: 16.0 mg/kg/injection, schedule: Q01DX010 (sc), vehicle: water) was 2 % of control and the T/C (dose: 24.0 mg/kg/injection, schedule: Q04DX003 (sc), vehicle: water) was 54 % of control. The T/C (dose: 48.0 mg/kg/injection, schedule: Q04DX003 (sc), vehicle: water) was 66 % of control, the T/C (dose: 96.0 mg/kg/injection, schedule: Q04DX003 (sc), vehicle: water) was 33 % of control and the T/C (dose: 192.0 mg/kg/injection, schedule: Q04DX003 (sc), vehicle: water) was 30 % of control.
